Data: PMC11017395 (ACS Medicinal Chemistry Letters, 2024)
In brackets after ≈: the same amount, converted by molar mass. Where two headings read alike, the source gives them in different places.

Columns and labels:
[1] = system: immature-stage gametocytes (PfiGc), NF54-PfS16-GFP-Luc; experiment: Antigametocytic luciferase reporter assay, immature/early stage; details: Plasmodium falciparum; for inhibition at 1 µM / inhibition at 5 µM: NF54, 48 h; for inhibition at 1 µM: read-out: Early gametocytes (EG) % activity, 1.0 µM; for inhibition at 5 µM: read-out: Early gametocytes (EG) % activity, 5.0 µM
[2] = system: late-stage gametocytes (PfLGc), NF54-PfS16-GFP-Luc; experiment: Antigametocytic luciferase reporter assay, late stage; details: Plasmodium falciparum; for inhibition at 1 µM / inhibition at 5 µM: NF54, 48 h; for inhibition at 1 µM: read-out: Late gametocytes (LG) % activity, 1.0 µM; for inhibition at 5 µM: read-out: Late gametocytes (LG) % activity, 5.0 µM
Description: (§1) In vitro Antigametocytic Activity Assay. Gametocytes were produced as per the method reported by Reader and co-workers.3 The luciferase reporter assay was used to enable accurate, reliable and quantifiable investigations of the stage-specific action of gametocytocidal compounds for the early and late gametocyte marker cell line NF54-PfS16-GFP-Luc.
(§2) (representing >90% of either early stage II/III or mature/late stage IV/V gametocytes, respectively). […]
(§3) h drug pressure in a gas chamber (90% N 2, 5% O 2, and 5% CO 2) at 37 °C. Luciferase activity was determined in 30 µl parasite lysates by adding 30 µl luciferin substrate (Promega Luciferase Assay System) at room temperature and detection of resultant bioluminescence at an integration constant of 10s with the GloMax® Explorer Detection System with Instinct® Software. […]
(§4) µM) and internal project specific controls were included as controls. The dual point screens were performed as technical triplicates for a single biological assay.

[3] = system: late-stages (IV – V) gametocytes; experiment: microbe, parasite or virus in culture; details: Plasmodium falciparum
Description: as §1, §2, §3, §4

P. berghei = details: in vivo, po
Protocol: In vivo Antiplasmodium Assay (Swiss TPH).
described,5 with the modification that mice (n = 3) were infected with a GFP -transfected P. berghei
ANKA strain (donated by A. P. Waters and C. J. Janse, Leiden University, The Netherlands), and
parasitemia was determined using standard flow cytometry techniques. The detection limit was 1
parasite in 1000 erythrocytes (that is, 0.1%). The activity was calculated as the difference between
the mean percent parasitemia for the control and treated groups expressed as a percent relative to the
control group. Compounds were dissolved or suspended in a vehicle consisting of 70% Tween -80
and 30% ethanol, followed by a 10 -fold dilution in H 2O and oral administration as four consecutive
Blood samples for the quadruple -dose regimens
The survival time in days was also recorded up to 30
days after infection. A compound was considered curative if the animal survived to day 30 after
infection with no detectable parasites by slide reading .

[4] = system: drug sensitive (NF54) strain of Pf; experiment: In vitro antiplasmodium assay, [3H]-hypoxanthine incorporation, NF54; format: cell-based, Plasmodium falciparum; details: for IC50: mean n ≥ 2
Protocol: All target compounds were evaluated for their antiplasmodium activity against the drug sensitive (NF54) strain of Pf and for turbidimetric kinetic solubility.
Aqueous Solubility. Solubility was measured from amorphous solid forms of the compounds using the turbidimetric method. Following the dissolution of test compound in DMSO to make a 10 mM stock solution, a pre-dilution plate was prepared by taking from each stock solution and serially diluting in triplicate to yield concentrations from 0.25 mM to 10.0 mM on a 96 well plate. From each pre-dilution solution, secondary dilutions of the compounds in both DMSO and 0.01M pH 7.4 PBS were prepared in triplicate on a second 96-well plate. Wells in columns 1-6 would contain […]
(§5) nominal concentrations as those in DMSO. The final volume of solvent in each assay plate was 200 µl, prepared by pipetting 4 µl each of solution from the pre-dilution plate to the corresponding well into both DMSO and PBS (both 196 µL). This ensures that the final concentration of DMSO in the […]
(§6) Similarly, a second secondary plate containing
(§7) Different concentrations in DMSO were prepared as controls to determine false turbidimetric absorbance readings arising from the compounds in solution absorbing incident radiation at the test wavelength. Following preparation, the assay plate was covered and left to equilibrate for 2 h at 25 °C. Afterwards, UV-vis absorbance readings from the plate were measured at 620 nm using a SpectraMax 340PC384 microplate reader. Plots of corrected absorbance against compound concentration were computed for a graphical representation of the data using MS Excel. Reserpine and hydrocortisone were used as positive and negative controls, respectively.
(§8) In vitro Antiplasmodium Assay. The compounds were tested using the modified [3H]-hypoxanthine incorporation assay, as previously reported.1
(§9) In vitro Cytotoxicity Assay. Compounds were screened against Chinese Hamster Ovarian (CHO) mammalian cell lines, using the 3-(4,5-dimethylthiazol-2-yl)-2,5-diphenyltetrazoliumbromide […]

[5] = system: PfK1 multidrug resistant strain; experiment: microbe, parasite or virus in culture; format: cell-based, Plasmodium falciparum
[6] = Turbidimetric kinetic aqueous solubility; format: physicochemical; details: turbidimetric method, PBS pH 7.4, read-out: Sol. (solubility)
Protocol: Aqueous Solubility. Solubility was measured from amorphous solid forms of the compounds using the turbidimetric method. Following the dissolution of test compound in DMSO to make a 10 mM stock solution, a pre-dilution plate was prepared by taking from each stock solution and serially […]
pre-dilution solution, secondary dilutions of the compounds in both DMSO and 0.01M pH 7.4 PBS were prepared in triplicate on a second 96-well plate. Wells in columns 1-6 would contain […]
as §5, §6, §7, §8, §9
It was prepared to 2 mg/ml in distilled water, while the stock solutions of test compounds were prepared to 20 mg/ml in DMSO (100%), […]
lowest being 0.001 µg/ml. […]
of cell suspension in each well and developed afterward by adding 25 µl of sterile MTT (Thermo

hERG K+ channel = target: T1, hERG K+ channel (Homo sapiens, UniProt Q12809); experiment: QPatch hERG assay; format: cell-based; details: CHO K1 cells stably expressing hERG
T1 construct: host or cells: CHO K1 (ATCC), stably expressing hERG
T1 sequence (Q12809 whole entry): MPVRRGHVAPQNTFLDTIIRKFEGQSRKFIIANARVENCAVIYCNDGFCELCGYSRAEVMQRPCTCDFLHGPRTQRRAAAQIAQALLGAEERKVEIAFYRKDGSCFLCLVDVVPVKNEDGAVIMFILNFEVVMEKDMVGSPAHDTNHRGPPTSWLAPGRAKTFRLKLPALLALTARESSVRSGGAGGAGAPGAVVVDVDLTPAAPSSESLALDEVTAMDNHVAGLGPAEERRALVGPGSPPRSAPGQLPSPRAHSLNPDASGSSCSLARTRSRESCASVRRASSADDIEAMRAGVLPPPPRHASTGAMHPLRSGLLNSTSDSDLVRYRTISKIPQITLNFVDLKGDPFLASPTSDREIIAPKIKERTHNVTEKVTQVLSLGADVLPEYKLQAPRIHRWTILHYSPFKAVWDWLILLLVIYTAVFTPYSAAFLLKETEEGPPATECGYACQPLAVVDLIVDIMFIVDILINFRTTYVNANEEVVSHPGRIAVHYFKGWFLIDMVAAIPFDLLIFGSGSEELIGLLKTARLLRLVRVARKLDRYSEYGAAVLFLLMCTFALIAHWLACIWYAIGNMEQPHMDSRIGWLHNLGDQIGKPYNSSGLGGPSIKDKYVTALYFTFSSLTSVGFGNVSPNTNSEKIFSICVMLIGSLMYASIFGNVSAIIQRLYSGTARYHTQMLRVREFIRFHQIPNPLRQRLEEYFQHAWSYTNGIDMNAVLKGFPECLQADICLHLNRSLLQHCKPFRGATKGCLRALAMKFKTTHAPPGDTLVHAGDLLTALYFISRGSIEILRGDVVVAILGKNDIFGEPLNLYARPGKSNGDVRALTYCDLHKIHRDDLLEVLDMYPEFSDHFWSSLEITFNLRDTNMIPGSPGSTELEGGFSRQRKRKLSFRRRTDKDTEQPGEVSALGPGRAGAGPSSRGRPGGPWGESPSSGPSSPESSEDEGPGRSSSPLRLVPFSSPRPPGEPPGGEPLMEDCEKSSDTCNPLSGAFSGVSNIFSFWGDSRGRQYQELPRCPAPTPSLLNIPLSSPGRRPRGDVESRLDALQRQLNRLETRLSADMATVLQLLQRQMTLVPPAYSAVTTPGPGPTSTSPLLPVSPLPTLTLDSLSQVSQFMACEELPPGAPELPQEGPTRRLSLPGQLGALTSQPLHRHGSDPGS
Protocol: In vitro Liver-stage Assay (P. berghei-sporozoite Infection). In a 24-well plate, HepG2 was seeded
employed as reference drugs. Negative control wells received medium only.
cells were trypsinized and the percentage (%) of infected cells was determined by flow cytometry
(BD LSRFortessa) using at least 10000 events. For determining host cell viability, in a 96-well plate,
h of incubation, a volume 100 µl of medium containing drugs was added and further incubated at 37
°C. Negative control wells received medium only and positive wells received gentian violet. After
Drugs were tested in five different concentrations, each one in

Which inhibition at 1 µM [1] does the source give for `COc1ccc(CCN2CCC(Nc3nc4ccccc4n3Cc3ccc(F)cc3)CC2)cc1` [AST, astemizole, reference compound] here?
Its inhibition at 1 µM is 5%.

And the inhibition at 5 µM [1]?
The inhibition at 5 µM was 61%.

And the inhibition at 1 µM [2]?
The inhibition at 1 µM was 0%.

And the inhibition at 5 µM [2]?
Its inhibition at 5 µM is 11%.

What about the inhibition at 1 µM ([3]; read-out: Late gametocytes (LG) % activity, 1.0 µM) of the same molecule?
The inhibition at 1 µM was 13%.

What about the inhibition at 5 µM ([3]; read-out: Late gametocytes (LG) % activity, 5.0 µM) of the same molecule?
Its inhibition at 5 µM is 52%.

Which IC50 ([1]; NF54, read-out: gametocytes IC50, immature-stage (PfiGc / PfEG), stages I–III, n = 1, technical triplicate) does the source give for `CN(C)c1ccc2nc3ccc(N(C)C)cc3[s+]c2c1` [methylene blue, reference compound] here?
The IC50 was 200 nM.

Which “MSD (mean survival days)” value (P. berghei) does the source give for `CCN(CC)CCCC(C)Nc1ccnc2cc(Cl)ccc12` (stereo not drawn) [CQ, chloroquine] here?
Its value is 24 days.

For `F[C@H]1CN(CCc2ccc(-c3noc(C(F)(F)F)n3)cc2)CC[C@@H]1Nc1nc2ccccc2[nH]1` [Compound 8], which “fold improvement of antiplasmodium activity over 7” value ([4]; PfNF54) is on record?
The value was 1.5 fold.

And the IC50 ([4]; Plasmodium falciparum, NF54, read-out: PfIC50 NF54, sensitive NF54 strain)?
Its IC50 is 140 to 650 nM.

What about the IC50 ([4]; read-out: PfIC50 NF54, sensitive NF54 strain) of the same molecule?
Its IC50 is 147 nM.

What about the “RI (resistance index = PfK1 IC50/PfNF54 IC50)” value [5] of the same molecule?
Its value is 2.61.

What about the IC50 ([5]; Plasmodium falciparum, K1, read-out: PfIC50 K1) of the same molecule?
The IC50 was 384 nM.

What about the solubility at 2 h [6] of the same molecule?
The solubility at 2 h was 100 µM (≈ 47.4 µg/mL).

Which results are given for `FC1CN(CCc2ccc(-c3noc(C(F)(F)F)n3)cc2)CCC1Nc1nc2ccccc2[nH]1` (stereo not drawn) [Compound 7]?
inhibition at 1 µM [1]: 0%; inhibition at 5 µM [1]: 27.6 ± 0.8%; IC50 ([1]; NF54, read-out: gametocytes IC50, immature-stage (PfiGc / PfEG)): 8160 nM; solubility at 2 h ([6]; PBS buffer): 120 µM (≈ 56.9 µg/mL); IC50 at 4 min (hERG K+ channel; pH 7.4, QPatch, CHO K1 cells expressing hERG): 980 nM; selectivity ratio at 4 min (hERG K+ channel; pH 7.4, read-out: hERG SI (selectivity index = hERG IC50/PfNF54 IC50)): 4.47; inhibition at 1 µM [2]: 10.9 ± 2.3%; inhibition at 5 µM [2]: 37.8 ± 0.5%; IC50 ([2]; NF54, read-out: gametocytes IC50, late-stage (PfLGc / PfLG)): 8000 nM

For `COC(=O)[C@H]1[C@H]2C[C@@H]3c4[nH]c5cc(OC)ccc5c4CCN3C[C@H]2C[C@@H](OC(=O)c2cc(OC)c(OC)c(OC)c2)[C@@H]1OC` [reserpine, reference compound], which solubility at 2 h [6] is on record?
Its solubility at 2 h is under 10 µM.
